ChEMBL document CHEMBL3217597, “OH radical production stimulated by (RW)4D, a synthetic antimicrobial agent and indolicidin” (Medchemcomm, 2012)
Values after ≈ are worked out from the molar mass of the structure shown. Active and inactive are the calls of the source. No cut-off for these calls is given here. Where a SMILES comes first, the peptide text is derived from it. Side-chain parts run from the residue outwards. [ ]: non-standard residue; d: D form. The star is where a group is joined. Lys(α,ε-(ArgTrp)2) = N=C(N)NCCC[C@H](N)C(=O)N[C@@H](Cc1c[nH]c2ccccc12)C(=O)NCCCC[C@H](NC(=O)[C@H](Cc1c[nH]c2ccccc12)NC(=O)[C@@H](N)CCCNC(=N)N)C(=O)*; βAla = NCCC(=O)O

Key:
Escherichia coli [1] = test: Reduction of hydroxyl radical production in deltamdh knockout Escherichia coli at 5 to 15 ug/ml after 1 hr by flow cytometry analysis; format: functional, organism-based
Escherichia coli [2] = test: Induction of hydroxyl radical production in Escherichia coli at 5 to 15 ug/mL after 2 hrs by measuring increase in hydroxyphenyl fluorescein emission by flow cytometry analysis; format: functional, organism-based
Escherichia coli [3] = test: Reduction of hydroxyl radical production in deltaicdA knockout Escherichia coli at 5 to 15 ug/ml after 1 hr by flow cytometry analysis; format: functional, organism-based
Escherichia coli [4] = test: Reduction of hydroxyl radical production in deltaacnB knockout Escherichia coli at 5 to 15 ug/ml after 1 hr by flow cytometry analysis; format: functional, organism-based
Escherichia coli [5] = test: Induction of hydroxyl radical production in Escherichia coli at 5 to 15 ug/mL after 1 hr by measuring increase in hydroxyphenyl fluorescein emission by flow cytometry analysis in presence of thiourea; format: functional, organism-based
Escherichia coli [6] = test: Induction of hydroxyl radical production in Escherichia coli at 5 to 15 ug/mL after 1 hr by measuring increase in hydroxyphenyl fluorescein emission by flow cytometry analysis; format: functional, organism-based
Escherichia coli [7] = test: Reduction of hydroxyl radical production in […] knockout Escherichia coli at 5 to 15 ug/ml after 1 hr by flow cytometry analysis; format: functional, organism-based
Escherichia coli [8] = test: Induction of hydroxyl radical production in deltaiscS knockout Escherichia coli at 5 to 15 ug/mL after 1 hr by measuring increase in hydroxyphenyl fluorescein emission by flow cytometry analysis; format: functional, organism-based
Escherichia coli [9] = test: Reduction of hydroxyl radical production in deltamdh knockout Escherichia coli at 5 to 25 ug/ml after 1 hr by flow cytometry analysis; format: functional, organism-based
Escherichia coli [10] = test: Induction of hydroxyl radical production in Escherichia coli at 5 to 25 ug/mL after 1 hr by measuring increase in hydroxyphenyl fluorescein emission by flow cytometry analysis in presence of thiourea; format: functional, organism-based
Escherichia coli [11] = test: Reduction of hydroxyl radical production in deltaicdA knockout Escherichia coli at 5 to 25 ug/ml after 1 hr by flow cytometry analysis; format: functional, organism-based
Escherichia coli [12] = test: Induction of hydroxyl radical production in Escherichia coli at 5 to 25 ug/mL after 2 hrs by measuring increase in hydroxyphenyl fluorescein emission by flow cytometry analysis; format: functional, organism-based
Escherichia coli [13] = test: Reduction of hydroxyl radical production in […] knockout Escherichia coli at 5 to 25 ug/ml after 1 hr by flow cytometry analysis; format: functional, organism-based
Escherichia coli [14] = test: Reduction of hydroxyl radical production in deltaacnB knockout Escherichia coli at 5 to 25 ug/ml after 1 hr by flow cytometry analysis; format: functional, organism-based
Escherichia coli [15] = test: Induction of hydroxyl radical production in Escherichia coli at 5 to 25 ug/mL after 1 hr by measuring increase in hydroxyphenyl fluorescein emission by flow cytometry analysis; format: functional, organism-based
Escherichia coli [16] = test: Induction of hydroxyl radical production in deltaiscS knockout Escherichia coli at 5 to 25 ug/mL after 1 hr by measuring increase in hydroxyphenyl fluorescein emission by flow cytometry analysis; format: functional, organism-based
Escherichia coli [17] = test: Induction of hydroxyl radical production in deltaiscS knockout Escherichia coli at 9 to 45 ug/mL after 1 hr by measuring increase in hydroxyphenyl fluorescein emission by flow cytometry analysis; format: functional, organism-based
Escherichia coli [18] = test: Reduction of hydroxyl radical production in deltamdh knockout Escherichia coli at 9 to 45 ug/mL after 1 hr by flow cytometry analysis; format: functional, organism-based
Escherichia coli [19] = test: Reduction of hydroxyl radical production in deltaacnB knockout Escherichia coli at 9 ug/ml after 1 hr by flow cytometry analysis; format: functional, organism-based
Escherichia coli [20] = test: Induction of hydroxyl radical production in Escherichia coli at 9 to 45 ug/mL after 2 hrs by measuring increase in hydroxyphenyl fluorescein emission by flow cytometry analysis; format: functional, organism-based
Escherichia coli [21] = test: Ratio of IC50 for deltaiscS knockout Escherichia coli to IC50 for Escherichia coli […]; format: functional
Escherichia coli [22] = test: Antibacterial activity against deltaacnB knockout Escherichia coli; format: functional, organism-based
Escherichia coli [23] = test: Antibacterial activity against deltaicdA knockout Escherichia coli; format: functional, organism-based
Escherichia coli [24] = test: Antibacterial activity against Escherichia coli […]; format: functional, organism-based
Escherichia coli [25] = test: Reduction of hydroxyl radical production in […] knockout Escherichia coli at 9 to 45 ug/mL after 1 hr by flow cytometry analysis; format: functional, organism-based
Escherichia coli [26] = test: Ratio of IC50 for deltaacnB knockout Escherichia coli to IC50 for Escherichia coli […]; format: functional
Escherichia coli [27] = test: Ratio of IC50 for deltaicdA knockout Escherichia coli to IC50 for Escherichia coli […]; format: functional
Escherichia coli [28] = test: Reduction of hydroxyl radical production in deltaicdA knockout Escherichia coli at 9 to 45 ug/mL after 1 hr by flow cytometry analysis; format: functional, organism-based
Escherichia coli [29] = test: Antibacterial activity against deltaiscS knockout Escherichia coli; format: functional, organism-based
Escherichia coli [30] = test: Antibacterial activity against deltamdh knockout Escherichia coli; format: functional, organism-based
Escherichia coli [31] = test: Induction of hydroxyl radical production in Escherichia coli at 9 to 45 ug/mL after 1 hr by measuring increase in hydroxyphenyl fluorescein emission by flow cytometry analysis; format: functional, organism-based
Escherichia coli [32] = test: Antibacterial activity against […] knockout Escherichia coli; format: functional, organism-based
Escherichia coli [33] = test: Induction of hydroxyl radical production in Escherichia coli at 9 to 45 ug/mL after 1 hr by measuring increase in hydroxyphenyl fluorescein emission by flow cytometry analysis in presence of thiourea; format: functional, organism-based
Escherichia coli [34] = test: Reduction of hydroxyl radical production in deltaacnB knockout Escherichia coli at 25 to 250 ng/ml after 1 hr by flow cytometry analysis; format: functional, organism-based
Escherichia coli [35] = test: Reduction of hydroxyl radical production in deltaicdA knockout Escherichia coli at 25 to 250 ng/ml after 1 hr by flow cytometry analysis; format: functional, organism-based
Escherichia coli [36] = test: Induction of hydroxyl radical production in Escherichia coli at 25 to 250 ng/mL after 1 hr by measuring increase in hydroxyphenyl fluorescein emission by flow cytometry analysis; format: functional, organism-based
Escherichia coli [37] = test: Reduction of hydroxyl radical production in deltamdh knockout Escherichia coli at 25 to 250 ng/ml after 1 hr by flow cytometry analysis; format: functional, organism-based
Escherichia coli [38] = test: Reduction of hydroxyl radical production in […] knockout Escherichia coli at 25 to 250 ng/ml after 1 hr by flow cytometry analysis; format: functional, organism-based
Escherichia coli [39] = test: Induction of hydroxyl radical production in Escherichia coli at 25 to 250 ng/mL after 1 hr by measuring increase in hydroxyphenyl fluorescein emission by flow cytometry analysis in presence of thiourea; format: functional, organism-based
Escherichia coli [40] = test: Induction of hydroxyl radical production in Escherichia coli at 25 to 250 ng/mL after 2 hrs by measuring increase in hydroxyphenyl fluorescein emission by flow cytometry analysis; format: functional, organism-based
Escherichia coli [41] = test: Induction of hydroxyl radical production in deltaiscS knockout Escherichia coli at 25 to 250 ng/mL after 1 hr by measuring increase in hydroxyphenyl fluorescein emission by flow cytometry analysis; format: functional, organism-based

CC1(C)S[C@@H]2[C@H](NC(=O)[C@H](N)c3ccccc3)C(=O)N2[C@H]1C(=O)O
Activity (Escherichia coli [1]): inactive
Activity (Escherichia coli [2]): Active
Activity (Escherichia coli [3]): inactive
Activity (Escherichia coli [4]): Active
Activity (Escherichia coli [5]): inactive
Activity (Escherichia coli [6]): Active
Activity (Escherichia coli [7]): inactive
Activity (Escherichia coli [8]): inactive

NC[C@H]1O[C@H](O[C@H]2[C@H](O)[C@@H](O[C@H]3O[C@H](CO)[C@@H](O)[C@H](N)[C@H]3O)[C@H](N)C[C@@H]2N)[C@H](O)[C@@H](O)[C@@H]1O
Activity (Escherichia coli [9]): inactive
Activity (Escherichia coli [10]): inactive
Activity (Escherichia coli [11]): inactive
Activity (Escherichia coli [12]): Active
Activity (Escherichia coli [13]): inactive
Activity (Escherichia coli [14]): Active
Activity (Escherichia coli [15]): Active
Activity (Escherichia coli [16]): inactive

N=C(N)NCCC[C@H](N)C(=O)N[C@@H](Cc1c[nH]c2ccccc12)C(=O)NCCCC[C@H](NC(=O)[C@H](Cc1c[nH]c2ccccc12)NC(=O)[C@@H](N)CCCNC(=N)N)C(=O)NCCCC[C@H](NC(=O)[C@H](CCCCNC(=O)[C@H](Cc1c[nH]c2ccccc12)NC(=O)[C@@H](N)CCCNC(=N)N)NC(=O)[C@H](Cc1c[nH]c2ccccc12)NC(=O)[C@@H](N)CCCNC(=N)N)C(=O)NCCC(N)=O (H-RWK([Trp-Arg])K(Lys(α,ε-(ArgTrp)2))[βAla]-NH2)
Activity (Escherichia coli [17]): inactive
Activity (Escherichia coli [18]): inactive
Activity (Escherichia coli [19]): Active
Activity (Escherichia coli [20]): Active
Ratio IC50 (Escherichia coli [21]): 1.5
IC50 (Escherichia coli [22]): 9.7 µg/mL (≈ 5.27 µM)
IC50 (Escherichia coli [23]): 9.4 µg/mL (≈ 5.1 µM)
IC50 (Escherichia coli [24]): 6.5 µg/mL (≈ 3.53 µM)
Activity (Escherichia coli [25]): inactive
Ratio IC50 (Escherichia coli [26]): 1.5
Ratio IC50 (Escherichia coli [27]): 1.5
Activity (Escherichia coli [28]): inactive
IC50 (Escherichia coli [29]): 9.9 µg/mL (≈ 5.37 µM)
IC50 (Escherichia coli [30]): 7.8 µg/mL (≈ 4.23 µM)
Activity (Escherichia coli [31]): Active
IC50 (Escherichia coli [32]): 8.3 µg/mL (≈ 4.51 µM)
Activity (Escherichia coli [33]): inactive

CCn1cc(C(=O)O)c(=O)c2cc(F)c(N3CCNCC3)cc21
Activity (Escherichia coli [34]): Active
Activity (Escherichia coli [35]): inactive
Activity (Escherichia coli [36]): Active
Activity (Escherichia coli [37]): inactive
Activity (Escherichia coli [38]): inactive
Activity (Escherichia coli [39]): inactive
Activity (Escherichia coli [40]): Active
Activity (Escherichia coli [41]): inactive
